# Read-outs that look alike come from different tables or passages of the source.
# Key:
# SGLT2 = SGLT2 (Homo sapiens (Human), UniProt P31639); test: In vitro SGLT2 inhibitory activity: 1-NBDG uptake by CHO-SGLT2 cells; assay type: cell-based; conditions: read-out: Inhibition rate of compounds on SGLT2 (%)
# Protocol: The effect of the compounds on SGLT2-mediated glucose uptake was investigated by establishing an SGLT2 overexpression cell model and using the fluorescent glucose (2-deoxy-1-[(7-nitro-2,1,3-benzoxadiazol-4-yl)amino]-D-glucose, 1-NBDG) tracer method to screen out candidate compounds with SGLT2 inhibitory activity.
# The humanized SGLT2 overexpression cells (CHO-SGLT2) constructed from Chinese hamster ovary (CHO) cells were cultured in 1640 medium (Gibco) containing 10% fetal bovine serum (Gibco, 10270), subcultured at a ratio of 1:3, and replaced with new culture medium 3 times every week. Fluorescence detection cell culture plates and other culture flasks were purchased from Corning Company. […] Appropriate amounts of all compounds were weighed, prepared into 100 mM stock solutions with DMSO, and stored at 4° C. in the dark.
# Before the 1-NBDG uptake test, CHO-SGLT2 cells were digested and seeded in a 96-well cell culture plate with a cell number of 40,000/well. After the cells were cultured for 48 h, the medium was discarded, and 100 μl of choline buffer was added to each well. After the cells were starved at 37° C. for 30 min, the choline buffer was discarded and 100 μl of the newly prepared Na^+ sodium buffer containing […] 1-NBDG and the test compounds (Compound) was added. The solvent DMSO was used as the negative control (Control) for the test compounds.
# The Na^+ sodium buffer without 1-NBDG was used as the blank control (Blank). After 1 h of culture, the incubation solution was discarded. The cells were washed with choline buffer solution 3 times, and then 50 μl of neutral lysate was added to each well to lyse the cells on ice for 10 min. The fluorescence value of each well was detected using a multi-functional microplate reader at […].
# At least 3 experimental replicates were set for each compound at indicated concentrations, and the data were expressed as mean±SEM. Uptake amount of 1-NBDG by cells=fluorescence value1-NBDG-fluorescence valueBlank. Inhibition rate on uptake amount of SGLT2 glucose (%)=(uptake amountcontrol−uptake amountcompound)/uptake amountcontrol×100%. Concentration-inhibition rate curves were plotted using Graphpad Prism software, and IC50 values were calculated accordingly.
# mice = conditions: 3000 mg/kg once by gavage; for Death rate (%): 7 days; for Deaths D 1: day 1; for Deaths D 2: day 2; for Deaths D 3: day 3; for Deaths D 4: day 4; for Deaths D 5: day 5; for Deaths D 6: day 6; for Deaths D 7: day 7
# Protocol: Test Example 5 Research on Safety of the Compounds of the Present Invention
# The compounds of the present invention were subjected to the following acute toxicity studies in mice.
# The symptoms of toxicity reaction and death time were recorded.
# On the day before administration, the animals were fasted but provided with water for 17 h. Each test drug group was administered with the corresponding test drug once by gavage, and the blank control group was administered with the same dose of vehicle once by gavage.
# Alloxan diabetic mice = test: Efficacy in Alloxan diabetes model mice; assay type: in vivo
# Protocol: Test Example 3 Research on efficacy of the compounds of the present invention in in vivo anti-Alloxan diabetes model mice
# Alloxan diabetes mice were used. Normal ICR mice (male, 22-24 g) were randomly divided into groups including normal group, model group (con), positive control group and test compound groups with four different doses (n=11), and the mice without injection of Alloxan were in a normal control group (n=10).
# Mice were administered with drugs by gavage.
# Single administration: Mice were fasted for 3 h, and then the fasting blood (0 min) was collected. Then the mice in each group were administered with drugs by gavage. After 1 h, they were administered with a glucose ([…]) solution. Blood was collected at 30 min, 60 min, 120 min, and 180 min after the glucose administration. The blood glucose level was measured using glucose oxidase-peroxidase method, and the area under the blood glucose curve was calculated.
# On the 6th day of continuous administration, under the condition of no fasting, blood samples were collected from mice before administration (0 h), 1 h, 2 h, 4 h, 8 h and 24 h after administration to measure blood glucose.
# On the 9th day of continuous administration, the mice were fasted for 1 h and then administered with drugs by gavage. An oral glucose tolerance test (OGTT) was performed 1 h after administration.
# On the 16th day of continuous administration, under the condition of no fasting, urine samples were collected from mice 1 h after administration to measure the concentration of urine glucose.
# On the 22nd day of continuous administration, the mice were fasted for 1 h and then administered with drugs by gavage, and blood samples were collected to measure the fasting blood glucose 1 h after administration.
# On the 28th day of continuous administration, under the condition of no fasting, blood samples were collected from mice 1 h after administration to measure the random blood glucose.
# On the 32nd day of continuous administration, under the condition of no fasting, blood samples were collected from mice to measure glycosylated hemoglobin (HbA1c).
# The data were expressed as mean±SEM (n=10-11). The comparison between multiple groups was performed by one-way analysis of variance, and the comparison between two groups was performed by Dunnett's t test. Statistical graphing was performed using Graphpad Prism software.
# SGLT2, sequence (P31639 whole entry): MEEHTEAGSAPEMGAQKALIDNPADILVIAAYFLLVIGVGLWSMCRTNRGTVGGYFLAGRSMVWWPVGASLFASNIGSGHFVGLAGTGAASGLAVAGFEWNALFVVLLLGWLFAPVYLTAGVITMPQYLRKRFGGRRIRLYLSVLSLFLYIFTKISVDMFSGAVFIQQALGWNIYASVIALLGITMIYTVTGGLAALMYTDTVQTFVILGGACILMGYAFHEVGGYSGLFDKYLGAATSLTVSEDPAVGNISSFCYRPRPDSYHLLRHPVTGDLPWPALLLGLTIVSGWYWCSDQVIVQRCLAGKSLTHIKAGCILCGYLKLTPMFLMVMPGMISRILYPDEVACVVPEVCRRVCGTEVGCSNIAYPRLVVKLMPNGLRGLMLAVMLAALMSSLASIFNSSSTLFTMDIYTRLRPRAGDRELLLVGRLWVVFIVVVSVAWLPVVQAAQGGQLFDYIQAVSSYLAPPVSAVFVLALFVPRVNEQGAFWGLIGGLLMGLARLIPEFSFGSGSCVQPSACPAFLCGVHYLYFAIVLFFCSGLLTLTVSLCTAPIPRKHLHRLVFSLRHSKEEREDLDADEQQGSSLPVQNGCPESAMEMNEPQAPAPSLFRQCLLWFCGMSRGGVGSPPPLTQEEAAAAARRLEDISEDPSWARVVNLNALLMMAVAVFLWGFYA
smiles,measurement,setting,value
"CCOc1ccc(Cc2cc([C@@H]3O[C@H](CO)[C@@H](O)[C@H](O)[C@H]3O)ccc2Cl)cc1 [Dapagliflozin, reference compound]",inhibition at 10 µM,SGLT2; compound concentration 1 × 10^−5 mol/L,106 ± 4.2%
same,inhibition at 10 pM,SGLT2; compound concentration 1 × 10^−11 mol/L,1.9 ± 9.2%
same,inhibition at 1 pM,SGLT2; compound concentration 1 × 10^−12 mol/L,6.8 ± 5.9%
same,inhibition at 0.05 µM,SGLT2; compound concentration 5 × 10^−8 mol/L,84.3 ± 4%
same,inhibition at 0.005 µM,SGLT2; compound concentration 5 × 10^−9 mol/L,84.8 ± 3.2%
same,inhibition at 0.0005 µM,SGLT2; compound concentration 5 × 10^−10 mol/L,60.1 ± 2%
same,inhibition at 50 pM,SGLT2; compound concentration 5 × 10^−11 mol/L,42 ± 2.8%
same,Death rate (%),mice; female,0%
same,Deaths D 1,mice; female,0
same,Deaths D 2,mice; female,0
same,Deaths D 3,mice; female,0
same,Deaths D 4,mice; female,0
same,Deaths D 5,mice; female,0
same,Deaths D 6,mice; female,0
same,Deaths D 7,mice; female,0
same,Death rate (%),mice; male,80%
same,Deaths D 1,mice; male,0
same,Deaths D 2,mice; male,0
same,Deaths D 3,mice; male,1
same,Deaths D 4,mice; male,1
same,Deaths D 5,mice; male,0
same,Deaths D 6,mice; male,2
same,Deaths D 7,mice; male,0
same,"Concentration of fasting blood glucose, the 9th day","Alloxan diabetic mice; 2.0 mg/kg, 9th day",256.7 ± 14.4 mg/dL
same,"Concentration of fasting blood glucose, the 22nd day","Alloxan diabetic mice; 2.0 mg/kg, 22nd day",316.5 ± 18.6 mg/dL
same,HbA1c,"Alloxan diabetic mice; 2.0 mg/kg, 32nd day",6.6 ± 0.5%
same,AUC of blood glucose,"Alloxan diabetic mice; 2.0 mg/kg, OGTT on the 9th day",463.3 ± 28.0 mg·h/dL
same,Concentration of blood glucose 0 min,"Alloxan diabetic mice; 2.0 mg/kg, OGTT on the 9th day, 0 min",256.7 ± 14.4 mg/dL
same,Concentration of blood glucose 30 min,"Alloxan diabetic mice; 2.0 mg/kg, OGTT on the 9th day, 30 min",278.3 ± 17.6 mg/dL
same,Concentration of blood glucose 60 min,"Alloxan diabetic mice; 2.0 mg/kg, OGTT on the 9th day, 60 min",227.3 ± 13.5 mg/dL
same,Concentration of blood glucose 120 min,"Alloxan diabetic mice; 2.0 mg/kg, OGTT on the 9th day, 120 min",178.9 ± 20.8 mg/dL
same,AUC of blood glucose,"Alloxan diabetic mice; 2.0 mg/kg, non-fasting, 6th day, 0-24 h",13216 ± 440.8 mg·h/dL
same,Concentration of blood glucose 1 h,"Alloxan diabetic mice; 2.0 mg/kg, non-fasting, 6th day, 1 h after administration",433.7 ± 19.5 mg/dL
same,Concentration of blood glucose 2 h,"Alloxan diabetic mice; 2.0 mg/kg, non-fasting, 6th day, 2 h after administration",425.1 ± 22.5 mg/dL
same,Concentration of blood glucose 4 h,"Alloxan diabetic mice; 2.0 mg/kg, non-fasting, 6th day, 4 h after administration",343.1 ± 17.8 mg/dL
same,Concentration of blood glucose 8 h,"Alloxan diabetic mice; 2.0 mg/kg, non-fasting, 6th day, 8 h after administration",522.7 ± 34.0 mg/dL
same,Concentration of blood glucose 24 h,"Alloxan diabetic mice; 2.0 mg/kg, non-fasting, 6th day, 24 h after administration",697.7 ± 17.6 ^ mg/dl
same,Concentration of blood glucose 0 h,"Alloxan diabetic mice; 2.0 mg/kg, non-fasting, 6th day, before administration",614.3 ± 9.6 ^ mg/dl
same,Concentration of blood glucose (random),"Alloxan diabetic mice; 2.0 mg/kg, random blood glucose on the 28th day",499.3 ± 13.0 mg/dL
same,Duration of hypoglycemic effect,"Alloxan diabetic mice; 6th day, dapagliflozin 2.0 mg/kg, Compound 2 0.25-2.0 mg/kg",no significant effect after 24 h
